Test results from the supplement of paper PMC10307832.

Legend:
Assay in all cases: relative viability (nuclei count vs DMSO), 5 days (fraction); higher = more cells survive
[1] = compound: N#CC1(c2ccc(NC(=O)c3cccnc3NCc3ccncc3)cc2)CCCC1 [Apatinib] + COc1cc2c(Oc3ccc(NC(=O)C4(C(=O)Nc5ccc(F)cc5)CC4)cc3F)ccnc2cc1OCCCN1CCOCC1 [Foretinib] (partner 0.25 µM)
Procedure, shortened: (§1)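 The day after seeding in 1536-well plates, lung cancer cell lines were treated by pin tool with a single drug, or with a fixed anchor-drug dose together with five library-drug doses (not always all listed) in √10 steps. After 5 days, a combined fix-and-stain solution (final 0.05% Triton X-100, 1% formaldehyde, 1 ug/ml Hoechst) was added. Nuclei counted on 4× images gave relative viability as treated counts over vehicle counts, reported as the median of duplicate plates.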

[2] = compound: CN(C)C(=N)NC(=N)N [Metformin] + NC(=O)Nc1cc(-c2cccc(F)c2)sc1C(=O)N[C@H]1CCCNC1 [AZD7762] (partner 0.2 µM)
Procedure, shortened: as §1

[3] = compound: CN(C)C(=N)NC(=N)N [Metformin] + O=C(c1cc(Cc2n[nH]c(=O)c3ccccc23)ccc1F)N1CCN(C(=O)C2CC2)CC1 [Olaparib] (partner 8 µM)
Procedure, shortened: as §1

[4] = compound: N#CC1(c2ccc(NC(=O)c3cccnc3NCc3ccncc3)cc2)CCCC1 [Apatinib] + C[C@@H](Oc1cc(-c2cnn(C3CCNCC3)c2)cnc1N)c1c(Cl)ccc(F)c1Cl [Crizotinib] (partner 1 µM)
Procedure, shortened: as §1

Row | Cell Line | relative viability ([1]; first compound 0.08 µM) | relative viability ([1]; first compound 0.253 µM) | relative viability ([1]; first compound 0.8 µM) | relative viability ([1]; first compound 2.53 µM) | relative viability ([1]; first compound 8 µM) | relative viability ([2]; first compound 10 µM) | relative viability ([2]; first compound 31.62 µM) | relative viability ([2]; first compound 100 µM) | relative viability ([2]; first compound 316.23 µM) | relative viability ([2]; first compound 1000 µM) | relative viability ([3]; first compound 10 µM) | relative viability ([3]; first compound 31.62 µM) | relative viability ([3]; first compound 100 µM) | relative viability ([3]; first compound 316.23 µM) | relative viability ([3]; first compound 1000 µM) | relative viability ([4]; first compound 0.08 µM) | relative viability ([4]; first compound 0.253 µM) | relative viability ([4]; first compound 0.8 µM) | relative viability ([4]; first compound 2.53 µM) | relative viability ([4]; first compound 8 µM)
1 | NCI-H650 | 1.05 | 1.05 | 1.02 | 0.871 | 0.806 | 1.03 | 1.22 | 0.896 | 0.835 | 1.18 | 0.315 | 0.296 | 0.396 | 0.316 | 0.368 | 0.664 | 0.843 | 0.676 | 0.562 | 0.43
2 | NCI-H2405 | 1.15 | 1.02 | 1.09 | 0.998 | 1.09 |  | 0.866 | 0.831 | 0.722 | 0.515 |  | 0.905 | 0.813 | 0.635 | 0.506 | 0.936 | 0.863 | 0.883 | 0.762 | 0.811
3 | H3255 | 0.973 | 0.795 | 0.757 | 0.753 | 0.675 | 0.898 | 0.853 | 0.814 | 0.845 | 0.738 | 0.487 | 0.594 | 0.523 | 0.441 | 0.402 | 0.956 | 0.841 | 0.907 | 0.723 | 0.786
4 | NCI-H1755 | 0.984 | 0.954 | 0.912 | 0.91 | 0.806 | 0.361 | 0.379 | 0.408 | 0.345 | 0.408 | 0.735 | 0.774 | 0.79 | 0.716 | 0.829 | 0.858 | 0.885 | 0.911 | 0.803 | 0.769
5 | EPLC-272H | 0.773 |  | 0.802 | 0.671 | 0.394 | 0.23 | 0.351 | 0.345 | 0.334 | 0.259 | 0.748 | 0.769 | 1.01 | 0.922 | 0.877 | 0.944 | 0.933 | 0.767 | 0.8 | 0.991
6 | NCI-H23 | 1 | 1.21 | 1.05 | 1 | 1.1 | 0.351 | 0.178 | 0.348 | 0.293 | 0.421 | 0.252 | 0.299 | 0.279 | 0.26 | 0.293 | 0.49 | 0.578 | 0.421 | 0.49 | 0.57
7 | LCLC-103H | 0.785 | 0.957 | 0.681 | 0.805 | 0.573 | 0.714 | 0.852 | 0.748 | 0.663 | 0.883 | 0.727 | 0.713 | 0.76 | 0.737 | 0.777 | 1.02 | 1.05 | 1.01 | 0.97 | 1.07
8 | NCI-H1944 | 0.869 | 0.942 | 0.691 | 0.807 | 0.603 | 0.406 | 0.586 | 0.48 | 0.626 | 0.527 | 0.385 | 0.381 | 0.479 | 0.397 | 0.471 | 1.03 | 1.17 | 0.998 | 0.983 | 0.911
9 | NCI-H2170 | 1.04 | 0.958 | 0.978 | 0.983 | 0.846 | 0.74 | 0.836 | 0.869 | 0.745 | 0.913 | 0.45 | 0.468 | 0.536 | 0.487 | 0.491 | 1.23 | 1.22 | 1.11 | 1.12 | 1.07
10 | HCC-15 | 1.1 | 0.866 | 1 | 0.999 | 0.834 |  | 1.07 | 1.11 | 1 | 1.27 | 0.532 | 0.615 | 0.47 | 0.571 | 0.585 | 0.85 | 0.814 | 0.811 | 0.799 | 0.717
11 | NCI-H1666 | 0.953 | 0.998 | 0.942 | 0.943 | 1.03 | 0.897 | 0.993 | 0.98 | 0.869 | 1.1 | 0.78 | 0.76 | 0.834 | 0.726 | 0.764 | 1.15 | 1.28 | 0.985 | 1.14 | 0.718
12 | HCC-78 | 0.6 | 0.513 | 0.523 | 0.536 | 0.535 |  | 0.99 | 0.946 | 0.846 | 0.917 |  | 1.01 | 1.07 | 0.979 | 0.443 | 0.328 | 0.325 | 0.326 | 0.347 | 0.346
13 | A-427 | 1.22 | 0.828 | 1.03 | 1.01 | 0.598 | 0.634 | 0.717 | 0.771 | 0.623 | 0.633 | 0.645 | 0.773 | 0.708 | 0.625 | 0.447 | 0.902 | 0.969 | 0.919 | 0.808 | 0.705
14 | NCI-H596 | 0.771 | 0.888 | 0.624 | 0.99 | 0.853 | 1.18 | 1.13 | 1.3 | 1.08 | 1.23 | 0.817 | 0.795 | 0.78 | 0.74 | 0.734 | 0.923 | 1.12 | 1.07 | 0.861 | 0.969
15 | EMC-BAC-2 | 1.08 | 1.12 | 1.04 | 0.919 | 0.858 | 1.14 | 1.26 | 1.17 | 1.22 | 1 | 0.381 | 0.394 | 0.401 | 0.339 | 0.361 | 0.726 | 0.73 | 0.764 | 0.633 | 0.475
16 | NCI-H1703 | 0.37 | 0.345 | 0.31 | 0.297 | 0.37 | 0.138 | 0.139 | 0.135 | 0.112 | 0.132 | 0.501 | 0.71 | 0.875 | 0.506 | 0.521 | 0.359 | 0.464 | 0.347 | 0.194 | 0.15
